Two compounds from patent publication US7825155B2, “Oxindole derivative as feeding control agent” (priority 2005, dated 2010) can be followed below.

The structures appear in SMILES notation.

Test [1] deals with T1, human GHSR (growth hormone secretagogue receptor) (Homo sapiens, UniProt Q92847).
T1 construct: host or cells: CHO-K1
In kind it is cell-based. The conditions noted are these: 1 μM compound, 10 nM Ghrelin, human GHSR CHO-K1 cells. How it is done:
Assessment of Ghrelin Antagonism Using Human GHSR Stably Expressing Cells
By using cells wherein human GHSR (growth hormone secretagogue receptor) is stably expressed, the effects of compounds of the Examples on elevation of cellular calcium ion concentrations were evaluated when endogenous ligand Ghrelin was added to the cells.
Human GHSR stably expressing CHO-K1 cells (EUROSCREEN) were seeded on 96-well assay plate (Black plate, Clear Bottom (Corning)) in 2×10^4 cells/100 μl/well, and incubated in cell culture device for 1 day at 37° C. under 5% CO2. […]
Ghrelin was combined with an equal amount of the test compound which was prepared with Hanks/Hepes (pH7.4) in a concentration of 10-times of the final concentration, and the mixture was added to the cells in 50 μl/well. Immediately after that, excitation wavelength in 488 nm was measured by FLIPR (Molecular Devices) 80 times at 1 second interval. Ghrelin antagonistic ratio (%) of the compound in the concentration of 1 μM was calculated according to the following equation wherein the values of fluorescence intensity means those obtained by deducting the minimum value from the maximum value. […]
A: Fluorescence intensity in case of adding 1 μM of the compound and 10 nM of Ghrelin
B: Fluorescence intensity in case of no addition of the compound and Ghrelin
C: Fluorescence intensity in case of adding only 10 nM of Ghrelin

The subject of test [2] is Ghrelin-induced feeding increasing mice. The experiment in a line: Assessment of feeding in mice (Ghrelin-induced feeding increasing mice). Format: in vivo. As to conditions: ICR mice, compound i.p. 12.5, 25, 50 mg/kg, Ghrelin 250 nmol/kg i.v., 1, 2 and 4 hours. On the procedure: Assessment of Feeding in Mice
The effects of compounds of the Examples on the feeding amount in intraperitoneally administering the compound were evaluated using Ghrelin-induced feeding increasing mice.
ICR mice (male, 7-week-old, Charles River Laboratories) were fed in 5 mice in each cage. Food (CE-2, Oriental Yeast Co., Ltd.) and sterile tap water were intaken freely.
ICR mice were intraperitoneally administered the compound (12.5, 25, 50 mg/kg) miscible in 10% polyethylene glycol #400, and immediately after that, intravenously administered Ghrelin (250 nmol/kg) dissolved in saline.
The food weight was measured 4 times in total: just before the administration of Ghrelin, and 1, 2 and 4 hours after the administration. The inhibition ratio was calculated according to the following equation and the integrated feeding amount until each measuring time point. Each treatment group consisted of 10 mice.
Inhibition ratio (%)=(B−C)/(B−A)×100
A: Feeding amount (g) in group administered with only vehicle
B: Feeding amount (g) in group administered with only Ghrelin
C: Feeding amount (g) in group administered with Ghrelin and test compound

T1 sequence (Q92847 whole entry): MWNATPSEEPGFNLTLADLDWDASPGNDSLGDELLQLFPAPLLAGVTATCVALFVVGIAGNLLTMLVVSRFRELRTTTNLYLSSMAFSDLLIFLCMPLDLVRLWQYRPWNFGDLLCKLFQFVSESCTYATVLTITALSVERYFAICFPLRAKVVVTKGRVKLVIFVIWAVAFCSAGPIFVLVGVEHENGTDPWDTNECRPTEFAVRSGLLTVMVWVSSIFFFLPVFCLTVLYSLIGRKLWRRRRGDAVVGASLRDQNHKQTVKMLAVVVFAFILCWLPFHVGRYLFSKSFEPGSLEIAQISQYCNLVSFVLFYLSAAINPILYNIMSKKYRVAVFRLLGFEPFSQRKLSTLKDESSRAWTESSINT

Regarding `CCN(CC)[C@H]1C[C@H](CN2C(=O)C(O)(c3ccc(Cl)cc3Cl)c3c2cc(C(N)=O)cc3C(F)(F)F)C1.Cl` (stereo partly drawn) [Example 1, 3-(2,4-dichlorophenyl)-1-[trans-3-(diethylamino)-cyclobutylmethyl]-4-trifluoromethyl-3-hydroxy-2-oxoindoline-6-carboxamide Hydrochloride], in test [1], the Ghrelin antagonistic ratio is recorded as 82%. Further, the “Inhibition ratio of feeding amount, maximum” value in test [2] turned out to be 110%.

Consider `CCN(CC)[C@H]1C[C@H](CN2C(=O)C(O)(c3ccc(Cl)cc3Cl)c3c2cc(-c2ncco2)cc3C(F)(F)F)C1` (stereo partly drawn) [Example 14, 3-(2,4-dichlorophenyl)-1-[trans-3-(diethylamino)-cyclobutylmethyl]-4-trifluoromethyl-3-hydroxy-6-(2-oxazolyl)-1,3-dihydro-2H-indol-2-one], for which the Ghrelin antagonistic ratio in test [1] is given as 74%.
